Here are results for six compounds from PubChem BioAssay (NCI).

SMILES strings stand for the structures.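 Method: 48-hour compound exposure of cells in 96-well plates, five concentrations, linear interpolation of endpoints. Abbreviation: GI50, concentration required for 50% inhibition of growth. TGI: concentration producing complete growth inhibition.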

Test systems include NCI/ADR-RES ovarian; PC-3 prostate; SN12C renal; A549 NSCLC; LOX IMVI melanoma; CAKI-1 renal; COLO 205 colon; T-47D breast; NCI-H23 lung; SR leukemia.
Assay in all cases: NCI-60 cell line screen, 48 h

On to `Cc1ccc(/C=N/NC(=O)c2ccccc2Oc2ccccc2)o1`, for which the GI50 is 25.9 µM in the assay on NCI/ADR-RES ovarian; 30.3 µM in the assay with PC-3 prostate; 32.9 µM in the assay with SN12C renal; 43.5 µM with A549 NSCLC; over 67.4 µM in the assay with LOX IMVI melanoma; 34.1 µM in the assay on CAKI-1 renal. Moreover, the GI50 in the assay with COLO 205 colon was 61.3 µM; with T-47D breast, 34.9 µM; in the assay with NCI-H23 lung, 39.2 µM; in the assay on SR leukemia, 40 µM. Besides, the TGI in the assay with NCI/ADR-RES ovarian, with PC-3 prostate, with SN12C renal, in the assay on A549 NSCLC, with LOX IMVI melanoma and with CAKI-1 renal was over 100 µM each time. Moreover, the TGI in the assay with COLO 205 colon, in the assay on T-47D breast, with NCI-H23 lung and in the assay with SR leukemia was over 100 µM each time.

With `Cc1sc(C(=O)c2cncnc2N[C@@H]2C[C@H](COS(N)(=O)=O)[C@@H](O)C2)cc1[C@@H]1NCCc2ccc(Cl)cc21`, the GI50 with NCI/ADR-RES ovarian is 51.8 µM; with PC-3 prostate it was 5.44 µM; in the assay on SN12C renal, 9.85 µM; in the assay with A549 NSCLC it was 2.21 µM; in the assay on LOX IMVI melanoma, 0.0959 µM; in the assay with CAKI-1 renal, 1.63 µM. The GI50 with COLO 205 colon is 0.041 µM; with T-47D breast it was 2.37 µM; in the assay with NCI-H23 lung it was 11.8 µM; in the assay with SR leukemia it was 0.547 µM. In addition, the TGI was over 100 µM with NCI/ADR-RES ovarian; 24.5 µM with PC-3 prostate; 24.5 µM in the assay with SN12C renal; 22.3 µM with A549 NSCLC; 15.6 µM in the assay on LOX IMVI melanoma; 25.5 µM in the assay on CAKI-1 renal. In addition, the TGI turned out to be 11.8 µM in the assay on COLO 205 colon, 29.3 µM in the assay with T-47D breast, 27 µM with NCI-H23 lung and 26.3 µM with SR leukemia.

Turning to `CC12OC(CC(O)C1O)n1c3ccccc3c3c4c(c5c6ccccc6n2c5c31)C(=O)N(CCN1CCOCC1)C4=O` (stereo not given), the GI50 in the assay on NCI/ADR-RES ovarian was 1.82 µM; with PC-3 prostate it was 1.19 µM; in the assay on SN12C renal, 1.02 µM; in the assay with A549 NSCLC, 0.4 µM; in the assay on LOX IMVI melanoma it was 0.425 µM; in the assay on CAKI-1 renal it was 1.02 µM. For the same compound, the GI50 with COLO 205 colon is 0.606 µM; in the assay on T-47D breast, 0.651 µM; in the assay on NCI-H23 lung, 1.05 µM; with SR leukemia, 0.176 µM. Besides, the TGI with NCI/ADR-RES ovarian was determined as 8.31 µM; with PC-3 prostate, 7.3 µM; in the assay with SN12C renal, 6.12 µM; in the assay with A549 NSCLC it was 2.35 µM; in the assay with LOX IMVI melanoma, 1.29 µM; in the assay with CAKI-1 renal it was 5.43 µM. Moreover, the TGI with COLO 205 colon worked out at 4.51 µM; in the assay on T-47D breast, 3.84 µM; with NCI-H23 lung, 4.87 µM; with SR leukemia it was 6.76 µM.

On to `COc1ccc(Oc2nc3cc(N)cc(N)c3nc2-c2ccccc2)cc1`, for which the GI50 in the assay with NCI/ADR-RES ovarian was 59.9 µM; in the assay on PC-3 prostate, 15 µM; with SN12C renal, 50.1 µM; in the assay on A549 NSCLC, 37.4 µM; in the assay with LOX IMVI melanoma, 34.7 µM; in the assay on CAKI-1 renal, 79.6 µM. Besides, the GI50 in the assay on COLO 205 colon was over 100 µM; in the assay on T-47D breast, 15.3 µM; in the assay on NCI-H23 lung it was 25.2 µM; in the assay on SR leukemia it was 18.5 µM. Further, the TGI in the assay with NCI/ADR-RES ovarian, with PC-3 prostate, in the assay on SN12C renal, in the assay on A549 NSCLC, with LOX IMVI melanoma and with CAKI-1 renal was over 100 µM throughout. Moreover, the TGI was over 100 µM in the assay on COLO 205 colon, 97.3 µM in the assay on T-47D breast, over 100 µM with NCI-H23 lung and over 100 µM in the assay with SR leukemia.

In the case of `NS(=O)(=O)c1ccc(N=Nc2ccc[nH]c2=O)cc1`, the TGI with NCI/ADR-RES ovarian, with PC-3 prostate, with SN12C renal, in the assay with A549 NSCLC, in the assay with LOX IMVI melanoma and in the assay with CAKI-1 renal was over 100 µM in each case. Besides, the TGI with COLO 205 colon, in the assay with T-47D breast, in the assay on NCI-H23 lung and in the assay on SR leukemia was over 100 µM in each case.

Take `O=C(Oc1ccccc1)N(c1ccccc1)c1ccccc1`: the GI50 in the assay with NCI/ADR-RES ovarian is 21.8 µM; with PC-3 prostate, 35.1 µM; with SN12C renal, 27.7 µM; in the assay on A549 NSCLC, 26.2 µM; with LOX IMVI melanoma, 19.9 µM; in the assay with CAKI-1 renal, 12.1 µM. In addition, the GI50 was 19.5 µM in the assay with COLO 205 colon, 24.9 µM in the assay on T-47D breast, 21.9 µM in the assay with NCI-H23 lung and 29 µM in the assay with SR leukemia. Besides, the TGI in the assay on NCI/ADR-RES ovarian was 72.2 µM; in the assay on PC-3 prostate it was over 100 µM; in the assay with SN12C renal, over 100 µM; in the assay with A549 NSCLC, over 100 µM; in the assay with LOX IMVI melanoma, 78.6 µM; in the assay with CAKI-1 renal it was 37.6 µM. Also, the TGI in the assay with COLO 205 colon is 44.7 µM; in the assay with T-47D breast it was over 100 µM; in the assay with NCI-H23 lung, 84.7 µM; with SR leukemia it was over 100 µM.
